Experimental data taken from US20240327320A1, “NOVEL ROUTES OF CHEMICAL SYNTHESIS OF 20S(OH)D3, 20S,25(OH)2D3, 20S,23S(OH)2D3, AND 20S,23R(OH)2D3 AND THEIR MODIFICATION OF THE IMMUNE ACTIVITY OF PBMCS” (United State Government as represen ted by the Department …, priority 2023, published 2024).

What was measured:
Mouse CYP27B1 = target: T1, Mouse CYP27B1 (Mus musculus, UniProt O35084); test: CYP27B1 activity on secosteroids in phospholipid vesicles (1α-hydroxylation); assay type: in vitro ADME; conditions: for 1α-hydroxylase activity: 0.025 mol secosteroid/mol phospholipid, CYP27B1 0.2 μM, mean±SD, n=3; for rate / efficiency of 1α-hydroxylation by CYP27B1, in words: phospholipid vesicles, mouse CYP27B1
T1 construct: made in house; host or cells: E. coli
T1 sequence (O35084 1-507): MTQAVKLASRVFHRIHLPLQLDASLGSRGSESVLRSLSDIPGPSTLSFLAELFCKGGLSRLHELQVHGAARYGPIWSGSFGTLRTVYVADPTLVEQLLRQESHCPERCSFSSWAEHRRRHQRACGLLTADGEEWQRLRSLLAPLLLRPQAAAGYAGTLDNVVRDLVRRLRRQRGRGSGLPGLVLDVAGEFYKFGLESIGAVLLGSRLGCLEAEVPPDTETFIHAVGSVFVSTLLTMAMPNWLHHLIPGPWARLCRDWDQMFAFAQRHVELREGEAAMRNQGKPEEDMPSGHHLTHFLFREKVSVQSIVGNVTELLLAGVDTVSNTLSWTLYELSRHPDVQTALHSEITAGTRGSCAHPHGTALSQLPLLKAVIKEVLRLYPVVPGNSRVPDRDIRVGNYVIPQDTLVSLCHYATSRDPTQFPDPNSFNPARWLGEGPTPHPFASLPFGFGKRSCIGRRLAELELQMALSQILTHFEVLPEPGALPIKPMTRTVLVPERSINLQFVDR
Method: Mouse CYP27B1 was expressed in E. coli and purified (Tang E K, et. al., (2010) Drug Metabolism and Disposition, 38(9) 1553-9). CYP27B1 activity was measured on substrate incorporated into the membrane of phospholipid vesicles as described previously. Briefly, phospholipid vesicles were prepared by sonication of dioleoyl phosphatidylcholine, cardiolipin and secosteroid. Vesicles (510 μM phospholipid) were then incubated at 37° C. with CYP27B1 (0.2 μM) in buffer comprising 20 mM Hepes, pH 7.4, 100 mM NaCl, 0.1 mM EDTA, 0.1 mM and dithiothreitol, adrenodoxin (15 μM), adrenodoxin reductase (0.4 μM), glucose-6-phosphate (2 mM), glucose-6-phosphate dehydrogenase (2 U/mL) and NAPDH (50 μM) in a volume of 0.5 ml. After reaction (5 or 20 min), the incubation mixture was extracted 3-times with 2.5 ml dichloromethane, extracts combined, dried under N2 gas and dissolved in 64% methanol. Samples were analysed by reverse phase HPLC on a Grace Alltima column (25×0.46 cm) using a gradient of 64 to 100% methanol for 15 min followed by 100% methanol for 30 min, at a flow rate of 0.5 ml/min. Metabolites were detected with a UV detector at 265 nm.
All four chemically synthesized secosteroids were converted to their expected 1α-hydroxy derivatives by CYP27B1, and identified on the basis of previous studies on the enzymatically and/or chemically derived substrates (Li W, et. al., (2010) Steroids 75(12) 926-35, Tang E K, et. al., (2013) Drug metabolism and disposition: the biological fate of chemicals 41(5) 1112-24, Lin Z, et. al., (2016) J Med Chem 59(10) 5102-8, Tang E K, et. al., (2010) Drug metabolism and disposition: the biological fate of chemicals 38(9) 1553-9). Secosteroids were incorporated into phospholipid vesicles at a ratio of 0.025 mol secosteroid/mol phospholipid and incubated with mouse CYP27B1 (0.2 μM) for 20 min for all substrates except 20S,25(OH)2D3 which was incubated for 5 min. Extracted samples were analyzed by reverse-phase HPLC. Data are mean±SD, n=3. […] In summary, the efficiency of metabolism of D3 derivatives by CYP27B1 is as follows: 20S,25(OH)2D3>>20S,23S(OH)2D3>20S(OH)D3=20S,23R(OH)2D3.

[1] = system: CYP24A1 (downstream target of the activated VDR); test: CYP24A1 expression, qPCR of downstream enzymes; assay type: cell-based; conditions: FIG. 8C
Method: RNA isolation and reverse transcription were performed as described previously (Slominski A T, et. al., (2021) Sci Rep 11(1) 8002). Quantitative RT-PCR was carried out using Sybr green Master Mix (Thermo Scientific, Waltham, MA), in triplicates as previously described (Slominski A T, et. al., (2021) Sci Rep 11(1) 8002; Janjetovic Z, et. al., (2014) J Pineal Res 57(1) 90-102). Human epidermal keratinocytes (HEKn) isolated from foreskin of white neonates were cultured until the third passage before treatment as described in the literature (Chaiprasongsuk A, et. al., (2019) Redox Biol 24 101206; Janjetovic Z, et. al., (2009) PloS one 4(6) e5988). Cells were treated with vitamin D3 derivatives for 8 h or 24 h and harvested for RNA isolation. Approximately 300 ng of RNA was used for cDNA synthesis and an equal amount of cDNA was used for PCR reactions. Cyclophilin B or GAPDH was used as an internal control. Primers sequences are listed in (Chaiprasongsuk A, et. al., (2020) Free Radic Biol Med 155 87-9845, Slominski A T, et. al., (2017) Sci Rep 7(1) 11434). Reactions were done in triplicate.
To better define the properties of the newly synthesized secosteroids, their activities on the VDR, AhR and LXR were tested by performing functional assays which were further validated by qPCR of downstream enzymes (FIGS. 8A-F) and molecular modeling (FIG. 9-13). Binding affinities of top-scored docking complexes of vitamin D3 hydroxy derivatives with VDR, AhR, LXRs (LXRα, LXRβ) and RORs (RORα, RORγ) from molecular docking are presented in FIG. 9, known ligands for each receptor were used as controls.

SMILES | 1α-hydroxylase activity (Mouse CYP27B1; incubated 20 min) | rate / efficiency of 1α-hydroxylation by CYP27B1, in words (Mouse CYP27B1) | 1α-hydroxylase activity (Mouse CYP27B1; incubated 5 min) | CYP24A1 expression [1]
C=C1CC[C@H](O)C/C1=C/C=C1\CCC[C@@]2(C)[C@H]1CC[C@@H]2[C@@](C)(O)CCCC(C)C [20S(OH)D3, (20S)-20-Hydroxyvitamin D3] | 0.135 ± 0.005 mol product/min/mol CYP27B1 | relatively poorer substrate for CYP27B1 | – | –
C=C1CC[C@H](O)C/C1=C/C=C1\CCC[C@@]2(C)[C@H]1CC[C@@H]2[C@@](C)(O)CCCC(C)(C)O [20S,25(OH)2D3, (20S)-20,25-Dihydroxyvitamin D3] | – | high rate of 1α-hydroxylation | 7.98 ± 0.24 mol product/min/mol CYP27B1 | much greater stimulation of CYP24A1 expression than 20S(OH)D3
C=C1CC[C@H](O)C/C1=C/C=C1\CCC[C@@]2(C)[C@H]1CC[C@@H]2[C@@](C)(O)C[C@@H](O)CC(C)C [20S,23S(OH)2D3, (20S,23S)-20,23-Dihydroxyvitamin D3] | 0.258 ± 0.020 mol product/min/mol CYP27B1 | metabolized approximately twice as fast as the non-natural 20S,23R-isomer | – | significantly less expression than 1α,25(OH)2D3
C=C1CC[C@H](O)C/C1=C/C=C1\CCC[C@@]2(C)[C@H]1CC[C@@H]2[C@@](C)(O)C[C@H](O)CC(C)C [20S,23R(OH)2D3, (20S,23R)-20,23-Dihydroxyvitamin D3] | 0.117 ± 0.027 mol product/min/mol CYP27B1 | – | – | significantly less expression than 1α,25(OH)2D3
